Measurements reported in patent publication US20260021092A1, “STRUCTURE-BASED DESIGN OF A NOVEL CLASS OF DRUGS FOR NEURODEGENERATIVE DISEASE” (The Regents of the University of California, priority 2022, published 2026).
“Also recorded” adds a separate entry of the source.

Key:
[1] = target: AD-tau fibrils seeding HEK293 cells expressing tau-K18 P301S-eYFP (Homo sapiens, UniProt P10636); assay: Tau biosensor cell seeding assay; assay type: cell-based; set-up: dose or concentration left out as unconfirmed; settings: screen; final inhibitor concentration on the biosensor cells
Experimental: Disaggregating molecules that produce active seeds are undesirable for therapy and are excluded from further study. HEK293T cells expressing CFP- or YFP-fused tau are transduced with exogenous AD tau fibrils.
Inhibitors were dissolved in DMSO. […] The number of seeded aggregates was determined by imaging the entire well of a 96-well plate in triplicate using a Celigo Image Cytometer (Nexcelom) in the YFP channel. […] The number of aggregates was normalized to the confluence of each well, and dose-response plots were generated by calculating the average and standard deviations from triplicate measurements.

[2] = tested on: AD brain-derived tau fibrils; assay: Dot blot of AD tau aggregates with antibody GT38 during EGCG incubation; assay type: biochemical, human; settings: EGCG incubation 1, 3, 6 and 24 hours at 37°
Experimental: Brain-derived tau PHFs were incubated with 80 μM EGCG at 37° C. in PBS various lengths of time. Samples were spotted onto nitrocellulose membrane, 20 μL were spotted for each condition, spotting 2 μL at a time and allowing to dry in between. Membrane was blocked for 1 hour in TBST with 5% milk and washed with TBST three times. Membrane was then incubated with primary antibody (either anti-tau GT38 (obtained from Virginia Lee lab at UPenn) or anti-phospho-tau AT8 (cat #MN1020, lot #UL2906281Z), 1:4000 dilution in 2% milk/TBST solution) for 1 hour, washed three times with TBST, incubated with horseradish peroxidase-conjugated secondary antibody (goat anti-mouse IgG H and L (HRP); 1:5000 Dilution in 2% milk/TBST), and washed three times in TBST. Signal was detected with Pierce ECL Plus Western Blotting Substrate (cat #32132), and blot was imaged with a Pharos FX Plus Molecular Imager.

[3] = tested on: AD brain-derived tau fibrils; assay: Negative-stain EM and quantitative EM (qEM) of tau fibrils after compound incubation
Experimental: We then scrutinized the four CNS-Set inhibitors by quantitative EM (qEM) imaging (FIG. 3c, see Methods).
Negatively stained EM Grids were prepared by depositing 6 μl of sample on formvar/carbon coated copper grids (400 mesh) for 3 min with. Sample was rapidly wicked using filter paper without drying the grid, and stained with 1% uranyl acetate for 2 min. […] Fibrils were counted from collections of 33 micrographs (in triplicate) for each experimental condition.

α-synuclein fibrils = α-synuclein fibrils (Homo sapiens, UniProt P37840); assay: Table A function: disaggregators of amyloid fibrils (alpha-synuclein)
[4] = target: T1, MSA brain-derived alpha-synuclein fibrils (Homo sapiens, UniProt P37840); assay: EM quantification of MSA brain-derived alpha-synuclein fibrils; assay type: biochemical; settings: incubated for 3 days, compared to control
T1 construct: Extraction of sarkosyl-insoluble alpha-synuclein fibrils from neuropathologically confirmed brain samples of patients diagnosed with MSA; from tissue; host or cells: post-mortem MSA patient brain
Experimental: Post-mortem alpha-synuclein fibrils were extracted and purified from the brain of a patient with MSA. The presence of fibrils in the extract was confirmed by electron microscopy (FIG. 3a). […] As with the recombinant fibrils, we next aimed to quantitatively assess brain-derived fibril disaggregation by EM. Compounds were incubated with MSA fibrils for 3 days, and fibrils were quantified by EM daily, with 10-15 images taken per experimental replicate.
For all transmission electron microscopy (TEM), 6 μL of sample were added onto 400 mesh Formvar Carbon film copper mesh grids (Electron Microscopy Sciences), then incubated for four minutes. 6 μL of 2% uranyl acetate solution was then used to stain the grids. After 2 minutes, excess solution was blotted off and grids were left to dry for a minimum of 30 minutes. TEM images were taken on a Tecnai 12 transmission electron microscope. For quantitation of fibrils, n=20 TEM images were taken per experimental condition from random points throughout the grid. Fibril counts were manually quantified per image in a blinded fashion.
Compounds were incubated quiescently with fibril samples (both recombinant and brain-derived) for 72 hours at 37° C. […]

[5] = target: T2, recombinant alpha-synuclein fibrils (Homo sapiens, UniProt P37840); assay: Western blot of alpha-synuclein fibrils treated with compound; assay type: biochemical; settings: 48 hours with compound
T2 construct: made in house; host or cells: E. coli BL21(DE3) Gold
Experimental: Both compounds were incubated with equimolar ratios of recombinant alpha-synuclein fibrils (100 μM:100 μM) for 48 hours at 37° C. in 1×PBS. After incubation, Thioflavin T (ThT), a fluorescent marker of amyloid fibrils, was added to the samples and ThT fluorescence was measured. EGCG was used as a positive control for comparison. […] Next, transmission electron microscopy (EM) was performed for each sample. […] To obtain a quantitative evaluation of fibril reduction, fibrils were first incubated for 72 hours with compound, then 10 micrographs from random grid points were taken for each sample, and the numbers of fibrils per image were counted (FIG. 5c). […] Western blot analysis, staining for alpha-synuclein, was performed for fibril samples incubated with compounds for 48 hours (FIG. 5d). For untreated alpha-synuclein fibrils, we see a prominent band at 14 kDa corresponding with protein monomer. […]
Samples were loaded onto a NuPAGE 12% Bis-Tris pre-cast protein gel and ran for 35 minutes at 200 V. To transfer protein from the gel to a nitrocellulose membrane an iBLOT2 dry blotting system was used. […] Signal was detected with Pierce ECL Plus Western Blotting Substrate (Cat #32132), and blot was imaged with a Pharos FX Plus Molecular Imager.

[6] = tested on: Neuro-2a (N2a) neuronal cells; assay: MTT cell viability assay of N2a cells treated with alpha-synuclein fibrils; assay type: cell-based; settings: final alpha-synuclein fibril concentration of 1 μM, various compound concentrations
Experimental: Alpha-synuclein aggregates, particularly oligomers, are known to be cytotoxic to neurons^4. Thus, we next determined if disaggregation of alpha-synuclein aggregates by our compounds mitigates their cytotoxicity. […] The fibril and compound mixtures were then added to cultured Neuro-2a (N2a) neuronal cells, to a final alpha-synuclein fibril concentration of 1 μM.
All experiments were performed in triplicate. […] Removal from the incubator and replacement of well media with 100 μL of 100% DMSO halted the assay. Absorbance was measured at 570 nm using a SpectraMax M5 reader. A background reading at 700 nm was subtracted from the 570 nm reading. Well readings were normalized to vehicle alone treated cells (designated as 100% viable) and cells treated with 100% DMSO (designated as 0% viable).

Chain of AD-tau fibrils seeding HEK293 cells expressing tau-K18 P301S-eYFP (P10636 623-695 limits assumed, stated change not applied): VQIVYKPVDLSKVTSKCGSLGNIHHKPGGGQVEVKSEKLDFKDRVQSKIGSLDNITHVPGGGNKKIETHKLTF

SMILES | inhibition of seeding in tau biosensor cells (in words) [1] | time at which reduction in GT38-positive tau aggregate level begins [2] | appearance of fibrils in negative stain electron micrographs ([3]; 3-hour EGCG incubation) | appearance of fibrils in negative stain electron micrographs ([3]; 24 hours of EGCG incubation) | fibrils seen by electron microscopy (qualitative) ([3]; tau fibrils treated with each compound) | Function (α-synuclein fibrils) | average number of imaged MSA fibrils [4] | higher molecular weight alpha-synuclein species by Western blot [5] | rescue of alpha-synuclein fibril cytotoxicity [6]
O=C(O[C@@H]1Cc2c(O)cc(O)cc2O[C@@H]1c1cc(O)c(O)c(O)c1)c1cc(O)c(O)c(O)c1 [EGCG, epigallocatechin gallate] | prevents the formation of any seeds | 1 to 3 h | largely intact but somewhat swollen | nearly gone | Few fibrils | – | – | – | –
Cc1cccc(C)c1NC(=O)Cn1nc(Cc2ccccc2)c2ccccc2c1=O [CNS-11g, 2-(4-benzyl-1-oxophthalazin-2-yl)-N-(2,6-dimethylphenyl)acetamide] | – | – | – | – | – | Dissociate α- synuclein fibrils | reduction in average number of imaged fibrils | reduction in the higher molecular weight species | –
Cc1cc(C)c(NC(=O)Cn2nc3c4c(cccc4c2=O)-c2ccccc2-3)c(C)c1 [CNS-11, N-mesityl-2-(3-oxoindeno[1,2,3-de]phthalazin-2(3H)-yl)acetamide] | – | – | – | – | – | – | reduction in average number of imaged fibrils | reduction in the higher molecular weight species | no rescue of toxicity at any concentration; also recorded: unable to rescue
